Results taken from ChEMBL document CHEMBL4177725, “Design and synthesis of novel pyrimidine analogs as highly selective, non-covalent BTK inhibitors” (Bioorg Med Chem Lett, 2018).
≈ marks a conversion by molar mass, not a printed value. Calls of active or inactive are those of the source. The calls are words filed in the database; no cut-off is given here.

What was measured:
[1] = target: T1, Tyrosine-protein kinase BTK (Homo sapiens, UniProt Q06187); assay: Inhibition of N-terminal DYKDDDDK tagged and biotinylated BTK activated form (unknown origin) using FITC-labeled Srctide substrate and ATP by microfluidic mobility shift assay
[2] = target: T1, Tyrosine-protein kinase BTK; assay: Inhibition of His-tagged lambda phosphatase pre-treated N-terminal DYKDDDDK tagged and biotinylated BTK unactivated form (unknown origin) using FITC-labeled Srctide substrate and ATP by microfluidic mobility shift assay
[3] = Apparent permeability in human Caco2 cells; assay type: ADME, cell-based; conditions: Caco-2
[4] = Kinetic solubility in phosphate buffer at pH 7.4 incubated for 1 hr at room temperature by LC-UV or LC-MS/MS method; assay type: physicochemical; conditions: read-out: Kinetic_solubility
[5] = target: Tyrosine-protein kinase SYK (Homo sapiens, UniProt P43405); assay: Inhibition of SYK (unknown origin) using FITC-labeled Blk/Lyntide substrate and ATP by microfluidic mobility shift assay
[6] = target: T1, Tyrosine-protein kinase BTK; assay: Inhibition of BTK (unknown origin) using FITC-labeled Srctide substrate and ATP by microfluidic mobility shift assay
[7] = AUC (0 to infinity) in ICR mouse at 10 mg/kg, po; assay type: ADME, organism-based; set-up: dose 10 mg/kg, time infinity, route oral; conditions: in vivo
[8] = target: T1, Tyrosine-protein kinase BTK; assay: Inhibition of anti-IgM antibody stimulated BTK Tyr223 autophosphorylation in human Ramos cells at 30 nM pre-incubated for 1 hr followed by anti-IgM stimulation for 10 mins by Western blotting; assay type: cell-based
[9] = target: T2, Cytoplasmic tyrosine-protein kinase BMX (Homo sapiens) (UniProt P51813); assay: Inhibition of N-terminal GST-fused human full length BMX at 0.3 uM
T2 sequence (whole entry): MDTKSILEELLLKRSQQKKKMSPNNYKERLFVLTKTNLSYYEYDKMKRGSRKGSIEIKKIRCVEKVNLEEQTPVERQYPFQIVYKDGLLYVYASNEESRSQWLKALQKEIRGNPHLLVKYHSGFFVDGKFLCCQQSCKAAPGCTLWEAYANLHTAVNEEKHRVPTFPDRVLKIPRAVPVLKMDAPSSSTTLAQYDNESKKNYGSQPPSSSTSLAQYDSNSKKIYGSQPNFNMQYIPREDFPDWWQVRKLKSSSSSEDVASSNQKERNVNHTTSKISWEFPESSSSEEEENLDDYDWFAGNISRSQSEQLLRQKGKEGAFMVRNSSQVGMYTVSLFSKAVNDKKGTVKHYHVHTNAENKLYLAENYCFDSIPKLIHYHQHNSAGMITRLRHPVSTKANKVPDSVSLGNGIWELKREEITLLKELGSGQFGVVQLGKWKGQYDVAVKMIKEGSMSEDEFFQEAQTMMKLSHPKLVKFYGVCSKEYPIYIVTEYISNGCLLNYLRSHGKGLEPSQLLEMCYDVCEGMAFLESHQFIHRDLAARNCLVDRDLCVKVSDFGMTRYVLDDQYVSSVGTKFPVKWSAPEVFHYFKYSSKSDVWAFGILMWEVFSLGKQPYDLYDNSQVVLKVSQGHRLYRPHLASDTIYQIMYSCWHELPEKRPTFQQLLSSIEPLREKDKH

[10] = target: T3, Tyrosine-protein kinase Tec (Homo sapiens) (UniProt P42680); assay: Inhibition of N-terminal GST-fused human TEC catalytic domain (359 to 631 amino acids) at 0.3 uM
T3 sequence (whole entry): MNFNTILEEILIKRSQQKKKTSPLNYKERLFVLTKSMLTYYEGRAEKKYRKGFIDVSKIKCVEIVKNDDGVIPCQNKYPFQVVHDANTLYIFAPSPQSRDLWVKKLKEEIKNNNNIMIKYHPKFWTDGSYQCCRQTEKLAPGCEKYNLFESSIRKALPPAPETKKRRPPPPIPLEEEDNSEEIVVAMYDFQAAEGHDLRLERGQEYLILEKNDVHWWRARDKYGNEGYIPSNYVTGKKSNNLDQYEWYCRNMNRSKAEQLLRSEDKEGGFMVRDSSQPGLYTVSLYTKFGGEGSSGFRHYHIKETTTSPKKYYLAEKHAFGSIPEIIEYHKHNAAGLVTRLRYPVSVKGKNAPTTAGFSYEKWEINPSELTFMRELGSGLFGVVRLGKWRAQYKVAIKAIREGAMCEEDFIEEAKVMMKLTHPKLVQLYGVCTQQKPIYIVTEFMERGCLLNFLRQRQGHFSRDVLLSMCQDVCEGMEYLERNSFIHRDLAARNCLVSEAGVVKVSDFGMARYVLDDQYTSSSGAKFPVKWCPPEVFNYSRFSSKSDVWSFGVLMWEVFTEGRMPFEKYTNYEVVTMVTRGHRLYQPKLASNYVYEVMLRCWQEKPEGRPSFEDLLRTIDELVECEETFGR

Mus musculus = assay: Inhibition of passive cutaneous anaphylaxis reaction in anti-DNP IgE sensitized mouse model of passive cutaneous anaphylaxis at 30 mg/kg, po dosed 46 hrs before DNP-BSA/dye mixture injection and measured after 30 mins; assay type: functional
[11] = target: Voltage-gated inwardly rectifying potassium channel KCNH2 (Homo sapiens, UniProt Q12809); assay: Inhibition of human ERG
[12] = Half life in ICR mouse at 2 mg/kg, iv; assay type: ADME, organism-based; conditions: in vivo
[13] = Half life in ICR mouse at 10 mg/kg, po; assay type: ADME, organism-based; conditions: in vivo
[14] = Tmax in ICR mouse at 2 mg/kg, iv; assay type: ADME, organism-based; conditions: in vivo
[15] = Tmax in ICR mouse at 10 mg/kg, po; assay type: ADME, organism-based; conditions: in vivo
[16] = Cmax in ICR mouse at 2 mg/kg, iv; assay type: ADME, organism-based; set-up: dose 2 mg/kg, route intravenous; conditions: in vivo
[17] = Cmax in ICR mouse at 10 mg/kg, po; assay type: ADME, organism-based; set-up: dose 10 mg/kg, route oral; conditions: in vivo
[18] = AUC (0 to t) in ICR mouse at 2 mg/kg, iv; assay type: ADME, organism-based; conditions: in vivo
[19] = AUC (0 to t) in ICR mouse at 10 mg/kg, po; assay type: ADME, organism-based; conditions: in vivo
[20] = AUC (0 to infinity) in ICR mouse at 2 mg/kg, iv; assay type: ADME, organism-based; set-up: dose 2 mg/kg, route intravenous, time infinity; conditions: in vivo
[21] = Apparent volume of distribution in ICR mouse at 2 mg/kg, iv; assay type: ADME, organism-based; conditions: in vivo, read-out: Vz
[22] = Clearance in ICR mouse at 2 mg/kg, iv; assay type: ADME, organism-based; conditions: in vivo
[23] = MRT (0 to infinity) in ICR mouse at 2 mg/kg, iv; assay type: ADME, organism-based; conditions: in vivo
[24] = MRT (0 to infinity) in ICR mouse at 10 mg/kg, po; assay type: ADME, organism-based; conditions: in vivo
[25] = Oral bioavailability in ICR mouse at 10 mg/kg; assay type: ADME, organism-based; conditions: in vivo
[26] = Stability in human microsomes; assay type: ADME, Microsome
[27] = Stability in mouse microsomes; assay type: ADME, Microsome

T1 sequence (Q06187 whole entry): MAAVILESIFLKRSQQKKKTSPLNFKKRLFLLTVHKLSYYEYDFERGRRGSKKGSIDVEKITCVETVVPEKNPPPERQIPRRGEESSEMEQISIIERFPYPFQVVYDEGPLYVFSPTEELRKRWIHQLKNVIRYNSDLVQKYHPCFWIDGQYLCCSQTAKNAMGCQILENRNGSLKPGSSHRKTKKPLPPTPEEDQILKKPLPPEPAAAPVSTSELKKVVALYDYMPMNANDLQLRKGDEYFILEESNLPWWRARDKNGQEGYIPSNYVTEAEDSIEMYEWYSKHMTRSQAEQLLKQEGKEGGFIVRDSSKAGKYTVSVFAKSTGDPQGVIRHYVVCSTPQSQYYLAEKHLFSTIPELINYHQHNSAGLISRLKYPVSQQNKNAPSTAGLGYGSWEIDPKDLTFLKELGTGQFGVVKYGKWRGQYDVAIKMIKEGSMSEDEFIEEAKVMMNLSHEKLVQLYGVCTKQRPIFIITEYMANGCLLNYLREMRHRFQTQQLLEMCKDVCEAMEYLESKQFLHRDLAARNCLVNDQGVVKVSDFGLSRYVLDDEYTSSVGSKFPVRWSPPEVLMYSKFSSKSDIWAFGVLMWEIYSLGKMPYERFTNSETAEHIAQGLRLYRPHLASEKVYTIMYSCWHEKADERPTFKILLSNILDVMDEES
Chain of Voltage-gated inwardly rectifying potassium channel KCNH2 (Q12809 whole entry): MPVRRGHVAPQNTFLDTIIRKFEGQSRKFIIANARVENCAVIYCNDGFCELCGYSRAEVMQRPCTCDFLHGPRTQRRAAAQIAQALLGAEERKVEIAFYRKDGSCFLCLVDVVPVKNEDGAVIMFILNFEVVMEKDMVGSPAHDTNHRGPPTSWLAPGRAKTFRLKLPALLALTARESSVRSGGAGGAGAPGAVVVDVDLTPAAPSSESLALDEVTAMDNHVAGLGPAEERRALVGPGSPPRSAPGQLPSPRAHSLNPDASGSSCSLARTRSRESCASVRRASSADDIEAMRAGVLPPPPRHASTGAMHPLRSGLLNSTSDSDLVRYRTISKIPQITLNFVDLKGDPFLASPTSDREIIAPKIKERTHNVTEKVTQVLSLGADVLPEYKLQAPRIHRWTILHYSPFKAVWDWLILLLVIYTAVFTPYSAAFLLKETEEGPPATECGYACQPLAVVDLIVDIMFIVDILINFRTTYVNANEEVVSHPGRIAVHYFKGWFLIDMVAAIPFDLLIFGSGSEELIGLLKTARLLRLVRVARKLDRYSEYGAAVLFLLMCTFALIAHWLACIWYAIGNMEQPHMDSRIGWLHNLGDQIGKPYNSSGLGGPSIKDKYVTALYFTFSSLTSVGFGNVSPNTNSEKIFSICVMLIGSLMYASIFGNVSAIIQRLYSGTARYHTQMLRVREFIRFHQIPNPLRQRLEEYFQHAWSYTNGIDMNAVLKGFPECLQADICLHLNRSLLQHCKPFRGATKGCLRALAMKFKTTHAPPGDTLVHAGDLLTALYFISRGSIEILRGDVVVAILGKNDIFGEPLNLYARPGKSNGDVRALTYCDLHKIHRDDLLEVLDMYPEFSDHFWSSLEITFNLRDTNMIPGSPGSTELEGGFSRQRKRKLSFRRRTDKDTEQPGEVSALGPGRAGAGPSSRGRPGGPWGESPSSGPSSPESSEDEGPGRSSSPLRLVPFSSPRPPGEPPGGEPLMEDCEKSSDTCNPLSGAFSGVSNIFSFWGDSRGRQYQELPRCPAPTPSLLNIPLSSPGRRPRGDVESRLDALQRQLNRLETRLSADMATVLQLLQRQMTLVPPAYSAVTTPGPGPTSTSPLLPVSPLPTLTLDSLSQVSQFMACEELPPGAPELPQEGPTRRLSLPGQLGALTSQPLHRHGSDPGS

CC(C)n1cc(Nc2nc(N)cc(-c3cccc(-n4ccc5cc(C6CC6)cc(F)c5c4=O)c3CO)n2)cn1
IC50 [1]: 2.6 nM
IC50 [2]: 0.2 nM
Papp [3]: 3.7 ×10⁻⁶ cm/s
solubility kinetic at 1 h [4]: 4 µM (≈ 2.1 µg/mL)

CC(C)(C)c1ccc(C(=O)Nc2cccc(-c3ccnc(Nc4ccc5cn[nH]c5c4)n3)c2)cc1
IC50 [5]: 360 nM
IC50 [6]: 7300 nM

Nc1cc(-c2cccc(-n3ccc4cc(C5CC5)cc(F)c4c3=O)c2CO)nc(Nc2cnn(C3CC3)c2)n1
IC50 [1]: 2.8 nM
AUC(0-inf) [7]: 19100 ng·h/mL
inhibition [8]: Active
Papp [3]: 6.9 ×10⁻⁶ cm/s
solubility kinetic at 1 h [4]: 9.8 µM (≈ 5.13 µg/mL)
inhibition [9]: 70%
inhibition [10]: 92%
inhibition in vivo at 30 mg/kg (Mus musculus): 46%
inhibition (INH) [11]: Active
half-life [12]: 1.09 h
half-life [13]: 1.31 h
Tmax [14]: 4.98 min
Tmax [15]: 1 h
Cmax [16]: 2260 ng/mL
Cmax [17]: 5940 ng/mL
AUC(0-t) [18]: 3150 ng·h/mL
AUC(0-t) [19]: 18700 ng·h/mL
AUC(0-inf) [20]: 3170 ng·h/mL
Vd [21]: 1 L/kg
clearance [22]: 10.5 mL/min/kg
MRT inf [23]: 1.36 h
MRT inf [24]: 2.24 h
bioavailability [25]: 120%

Cn1ccc(Nc2nc(N)cc(-c3cccc(-n4ccc5cc(C6CC6)cc(F)c5c4=O)c3CO)n2)n1
IC50 [1]: 245 nM
IC50 [2]: 13.9 nM

Cn1cc(Nc2nc(N)cc(-c3cccc(-n4ccc5cc(C6CC6)cc(F)c5c4=O)c3CO)n2)cn1
IC50 [1]: 3.7 nM
IC50 [2]: 0.4 nM
AUC(0-inf) [7]: 12800 ng·h/mL
inhibition [8]: Active
Papp [3]: 6.3 ×10⁻⁶ cm/s
solubility kinetic at 1 h [4]: 18 µM (≈ 8.96 µg/mL)
half-life [12]: 1.12 h
half-life [13]: 0.96 h
Tmax [14]: 4.98 min
Tmax [15]: 0.5 h
Cmax [16]: 2950 ng/mL
Cmax [17]: 4540 ng/mL
AUC(0-t) [18]: 3460 ng·h/mL
AUC(0-t) [19]: 12700 ng·h/mL
AUC(0-inf) [20]: 3480 ng·h/mL
Vd [21]: 0.93 L/kg
clearance [22]: 9.67 mL/min/kg
MRT inf [23]: 1.13 h
MRT inf [24]: 1.91 h
bioavailability [25]: 73.7%

Cn1cc(Nc2nc(N)cc(-c3cccc(-n4ccc5cc(C6CC6)cc(F)c5c4=O)c3CO)n2)cc1C#N
IC50 [1]: 20.2 nM

Cn1ccc(Nc2nc(N)cc(-c3cccc(-n4ccc5cc(C6CC6)cc(F)c5c4=O)c3CO)n2)c1
IC50 [1]: 62 nM
IC50 [2]: 17 nM

Nc1cc(-c2cccc(-n3ccc4cc(C5CC5)cc(F)c4c3=O)c2CO)nc(Nc2cnn(C3(CO)CC3)c2)n1
IC50 [1]: 12 nM
IC50 [2]: 0.6 nM
Papp [3]: 0.7 ×10⁻⁶ cm/s

Cc1c(NC(=O)c2ccc(C(C)(C)C)cc2)cccc1-c1ccnc(Nc2ccc(C(=O)N3CCOCC3)cc2)n1
IC50 [5]: > 10000 nM
Stability [26]: Unstable
Stability [27]: Unstable

Nc1cc(-c2cccc(-n3ccc4cc(C5CC5)cc(F)c4c3=O)c2CO)nc(Nc2cn[nH]c2)n1
IC50 [1]: 8.1 nM

CC(=O)c1cc(Nc2nc(N)cc(-c3cccc(-n4ccc5cc(C6CC6)cc(F)c5c4=O)c3CO)n2)cn1C
IC50 [1]: 5.9 nM

Cc1c(NC(=O)c2ccc(C(C)(C)C)cc2)cccc1-c1ccnc(Nc2ccc3cn[nH]c3c2)n1
IC50 [5]: > 10000 nM
IC50 [6]: 440 to 450 nM
Stability [26]: Unstable
Stability [27]: Unstable

CCn1cc(Nc2nc(N)cc(-c3cccc(-n4ccc5cc(C6CC6)cc(F)c5c4=O)c3CO)n2)cn1
IC50 [1]: 10 nM
IC50 [2]: 0.4 nM
Papp [3]: 5.4 ×10⁻⁶ cm/s

CN1CCN(c2ccc(Nc3nc(N)cc(-c4cccc(-n5ccc6cc(C7CC7)cc(F)c6c5=O)c4CO)n3)cc2)CC1
IC50 [1]: 5.3 nM

Nc1cc(-c2cccc(-n3ccc4cc(C5CC5)cc(F)c4c3=O)c2CO)nc(Nc2ccc(N3CCOCC3)cc2)n1
IC50 [1]: 12.9 nM
IC50 [2]: 0.6 nM

COc1ccc(Nc2nc(N)cc(-c3cccc(-n4ccc5cc(C6CC6)cc(F)c5c4=O)c3CO)n2)cc1
IC50 [1]: 39 nM
IC50 [2]: 2.5 nM

Nc1cc(-c2cccc(-n3ccc4cc(C5CC5)cc(F)c4c3=O)c2CO)nc(Nc2cnn(CC3CC3)c2)n1
IC50 [1]: 3.4 nM
Papp [3]: 6.1 ×10⁻⁶ cm/s
solubility kinetic at 1 h [4]: 6.3 µM (≈ 3.39 µg/mL)

Nc1cc(-c2cccc(-n3ccc4cc(C5CC5)cc(F)c4c3=O)c2CO)nc(Nc2cnn(CC(F)F)c2)n1
IC50 [1]: 3.3 nM
IC50 [2]: 0.2 nM
Papp [3]: 3.1 ×10⁻⁶ cm/s
solubility kinetic at 1 h [4]: 2.1 µM (≈ 1.15 µg/mL)

COc1cc(Nc2nccc(-c3cccc(NC(=O)c4ccc(C(C)(C)C)cc4)c3C)n2)cc(OC)c1OC
IC50 [5]: > 10000 nM
IC50 [6]: 6.1 nM
Stability [26]: Unstable
Stability [27]: Unstable

Cc1c(NC(=O)c2ccc(C(C)(C)C)cc2)cccc1-c1ccnc(Nc2ccc3[nH]ncc3c2)n1
IC50 [5]: > 10000 nM
IC50 [6]: 40 nM
Stability [26]: Unstable
Stability [27]: Unstable

CC(C)(C)n1cc(Nc2nc(N)cc(-c3cccc(-n4ccc5cc(C6CC6)cc(F)c5c4=O)c3CO)n2)cn1
IC50 [1]: 11 nM
IC50 [2]: 0.6 nM
Papp [3]: 5.7 ×10⁻⁶ cm/s

CC(C)(C)c1ccc(C(=O)Nc2cccc(-c3ccnc(Nc4ccc5cc[nH]c5c4)n3)c2)cc1
IC50 [5]: > 10000 nM
IC50 [6]: 52 nM
Stability [26]: Unstable
Stability [27]: Unstable

Nc1cc(-c2cccc(-n3ccc4cc(C5CC5)cc(F)c4c3=O)c2CO)nc(Nc2ccc(CN3CCOCC3)cc2)n1
IC50 [1]: > 10000 nM
IC50 [2]: 309 nM
